Calls of active or inactive are those of the source. The calls are words filed in the database; no cut-off is given here.
Tests used:
[1] = Cytotoxicity against human MCF-10A cells assessed as inhibition of cell proliferation incubated for 72 hrs by MTT assay; assay type: toxicity, cell-based
[2] = test system: MDA-MB-453; assay: Antiproliferative activity against human MDA-MB-453 cells assessed as inhibition of cell proliferation incubated for 72 hrs by MTT assay; assay type: functional, cell-based; settings: MDA-MB-453, 72 h
[3] = test system: MDA-MB-157; assay: Antiproliferative activity against human MDA-MB-157 cells assessed as inhibition of cell proliferation incubated for 72 hrs by MTT assay; assay type: functional, cell-based; settings: MDA-MB-157, 72 h
[4] = test system: MDA-MB-231; assay: Antiproliferative activity against human MDA-MB-231 cells assessed as inhibition of cell proliferation at 10 uM incubated for 72 hrs by MTT assay relative to control; assay type: functional
[5] = test system: MDA-MB-231; assay: Antiproliferative activity against human MDA-MB-231 cells assessed as inhibition of cell proliferation incubated for 72 hrs by MTT assay; assay type: functional, cell-based; settings: MDA-MB-231, 72 h
[6] = Potency index, ratio of test compound IC50 to chloropyramine IC50 for cytotoxicity against human MCF-10A cells assessed as inhibition of cell proliferation incubated for 72 hrs by MTT assay; assay type: toxicity, cell-based; settings: read-out: Ratio IC50
[7] = test system: MDA-MB-231; assay: Induction of apoptosis in human MDA-MB-231 cells assessed as early apoptotic cells at 10 uM incubated for 72 hrs by Annexin V-FITC and PI staining based flow cytometry analysis (reference value: 1.70 %); assay type: functional
[8] = test system: MDA-MB-231; assay: Induction of apoptosis in human MDA-MB-231 cells assessed as late apoptotic cells at 5 uM incubated for 72 hrs by Annexin V-FITC and PI staining based flow cytometry analysis (reference value: 4.98 %); assay type: functional
[9] = test system: MDA-MB-231; assay: Inhibition of cell migration in human MDA-MB-231 cells incubated for 24 hrs by scratch wound healing assay; assay type: functional, cell-based; settings: dose 5-20 µM, DDE = dose-dependent effect
[10] = test system: MDA-MB-231; assay: Induction of apoptosis in human MDA-MB-231 cells assessed as viable cells at 10 uM incubated for 72 hrs by Annexin V-FITC and PI staining based flow cytometry analysis (reference value: 92.16 %); assay type: functional; settings: read-out: Activity
[11] = test system: MDA-MB-231; assay: Induction of apoptosis in human MDA-MB-231 cells assessed as dead cells at 10 uM incubated for 72 hrs by Annexin V-FITC and PI staining based flow cytometry analysis (reference value: 1.16 %); assay type: functional
[12] = molecular target: Focal adhesion kinase 1 (Homo sapiens) (UniProt Q05397); assay: Inhibition of FAK autophosphorylation at […] in human MDA-MB-231 cells incubated for 72 hrs by Western blot analysis; assay type: cell-based; settings: dose 5-20 µM, DDE = dose-dependent effect
Chain of Focal adhesion kinase 1 (Homo sapiens) (Q05397 2-1052 limits assumed): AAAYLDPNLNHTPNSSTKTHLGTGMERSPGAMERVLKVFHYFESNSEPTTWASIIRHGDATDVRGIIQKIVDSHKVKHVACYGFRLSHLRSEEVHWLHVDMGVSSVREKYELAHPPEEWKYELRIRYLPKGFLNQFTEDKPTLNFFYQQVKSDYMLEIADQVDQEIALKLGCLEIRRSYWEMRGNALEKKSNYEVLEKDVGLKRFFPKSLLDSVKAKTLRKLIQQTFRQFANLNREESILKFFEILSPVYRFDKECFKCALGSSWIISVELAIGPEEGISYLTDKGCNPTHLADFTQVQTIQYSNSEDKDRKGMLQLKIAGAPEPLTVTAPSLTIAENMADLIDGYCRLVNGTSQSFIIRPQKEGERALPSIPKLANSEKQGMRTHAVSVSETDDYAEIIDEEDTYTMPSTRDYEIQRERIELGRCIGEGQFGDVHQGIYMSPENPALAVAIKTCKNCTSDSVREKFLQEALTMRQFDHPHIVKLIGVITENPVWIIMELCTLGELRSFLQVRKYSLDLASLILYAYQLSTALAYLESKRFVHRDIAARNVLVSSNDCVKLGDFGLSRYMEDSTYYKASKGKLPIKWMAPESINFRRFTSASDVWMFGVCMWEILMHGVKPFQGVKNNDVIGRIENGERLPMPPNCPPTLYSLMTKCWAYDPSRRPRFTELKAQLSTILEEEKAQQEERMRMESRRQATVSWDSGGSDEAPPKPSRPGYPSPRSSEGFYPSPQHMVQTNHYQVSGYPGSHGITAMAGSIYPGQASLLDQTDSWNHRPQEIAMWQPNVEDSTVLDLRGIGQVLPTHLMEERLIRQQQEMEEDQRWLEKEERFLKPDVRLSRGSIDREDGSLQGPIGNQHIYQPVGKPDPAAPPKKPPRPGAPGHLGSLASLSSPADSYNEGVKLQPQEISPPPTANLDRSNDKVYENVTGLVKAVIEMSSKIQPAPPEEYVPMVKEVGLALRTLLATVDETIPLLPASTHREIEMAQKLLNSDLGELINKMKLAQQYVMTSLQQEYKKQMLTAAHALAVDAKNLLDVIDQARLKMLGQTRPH

[13] = test system: MDA-MB-231; assay: Induction of apoptosis in human MDA-MB-231 cells assessed as dead cells at 20 uM incubated for 72 hrs by Annexin V-FITC and PI staining based flow cytometry analysis (reference value: 1.16 %); assay type: functional
[14] = test system: MDA-MB-231; assay: Induction of apoptosis in human MDA-MB-231 cells assessed as viable cells at 20 uM incubated for 72 hrs by Annexin V-FITC and PI staining based flow cytometry analysis (reference value: 92.16 %); assay type: functional; settings: read-out: Activity
[15] = test system: MDA-MB-231; assay: Inhibition of cell invasion in human MDA-MB-231 cells assessed as reduction in invasive cells incubated for 24 hrs by crystal violet staining based transwell assay; assay type: functional; settings: dose 5-20 µM, DDE = dose-dependent effect
[16] = test system: MDA-MB-231; assay: Induction of apoptosis in human MDA-MB-231 cells assessed as viable cells at 5 uM incubated for 72 hrs by Annexin V-FITC and PI staining based flow cytometry analysis (reference value: 92.16 %); assay type: functional; settings: read-out: Activity
[17] = test system: MDA-MB-231; assay: Potency index, ratio of chloropyramine IC50 to test compound IC50 for antiproliferative activity against human MDA-MB-231 cells assessed as inhibition of cell proliferation incubated for 72 hrs by MTT assay; assay type: functional
[18] = test system: MDA-MB-231; assay: Induction of apoptosis in human MDA-MB-231 cells assessed as early apoptotic cells at 20 uM incubated for 72 hrs by Annexin V-FITC and PI staining based flow cytometry analysis (reference value: 1.70 %); assay type: functional
[19] = test system: MDA-MB-231; assay: Inhibition of focal adhesion formation in human MDA-MB-231 cells assessed as reduction in focal adhesion at 20 uM incubated for 72 hrs by vinculin antibody based immunofluorescence microscopic analysis; assay type: functional, cell-based
[20] = test system: MDA-MB-231; assay: Induction of apoptosis in human MDA-MB-231 cells assessed as late apoptotic cells at 20 uM incubated for 72 hrs by Annexin V-FITC and PI staining based flow cytometry analysis (reference value: 4.98 %); assay type: functional
[21] = test system: MDA-MB-231; assay: Inhibition of stress fibers formation in human MDA-MB-231 cells assessed as reduction in stress fibers at 20 uM incubated for 72 hrs by FITC-Phalloidin staining based immunofluorescence microscopic analysis; assay type: functional, cell-based
[22] = test system: MDA-MB-231; assay: Induction of apoptosis in human MDA-MB-231 cells assessed as dead cells at 5 uM incubated for 72 hrs by Annexin V-FITC and PI staining based flow cytometry analysis (reference value: 1.16 %); assay type: functional
[23] = test system: MDA-MB-231; assay: Induction of apoptosis in human MDA-MB-231 cells assessed as early apoptotic cells at 5 uM incubated for 72 hrs by Annexin V-FITC and PI staining based flow cytometry analysis (reference value: 1.70 %); assay type: functional
[24] = test system: MDA-MB-231; assay: Induction of apoptosis in human MDA-MB-231 cells assessed as late apoptotic cells at 10 uM incubated for 72 hrs by Annexin V-FITC and PI staining based flow cytometry analysis (reference value: 4.98 %); assay type: functional

Row | Compound | IC50 [2] | IC50 [3] | IC50 [5] | IC50 at 72 h [1] | inhibition at 10 µM [4] | also measured
1 | Cc1nc(C)c(/C=C/C(=O)N(CCN(C)C)c2ccccn2)nc1C | 21.2 µM | 9.68 µM | 14 µM | > 60 µM | > 50% | –
2 | CN(C)CCN(Cc1ccc(Cl)cc1)c1ccccn1 [CHLOROPYRAMINE] | > 60 µM | 43.1 µM | 49.7 µM | > 60 µM | – | –
3 | CN(C)CCN(C(=O)/C=C/c1c[nH]c2ccccc12)c1ccccn1 | 9.07 µM | 12.1 µM | 8.37 µM | 40.6 µM | > 50% | selectivity ratio at 72 h [6]: 5; Activity [7]: 2%; Activity [8]: 10.05%; inhibition [9]: Dde; viability at 10 µM [10]: 63.8%; Activity [11]: 3.98%; inhibition [12]: Dde; Activity [13]: 5.83%; viability at 20 µM [14]: 52.6%; inhibition [15]: Dde; viability at 5 µM [16]: 83%; Ratio IC50 [17]: 6; Activity [18]: 2.01%; inhibition [19]: Active; Activity [20]: 39.58%; inhibition [21]: Active; Activity [22]: 3.88%; Activity [23]: 3.05%; Activity [24]: 30.24%

Continued by falling IC50 [2], values first:

Row | IC50 [2] | IC50 [3] | IC50 [5] | Compound | IC50 at 72 h [1] | inhibition at 10 µM [4] | also measured
4 | 15.9 µM | 14.2 µM | 13.5 µM | COc1cc(/C=C/C(=O)N(CCN(C)C)c2ccccn2)ccc1O | > 60 µM | > 50% | –
5 | 15.5 µM | 21.4 µM | 9.31 µM | COc1cc(/C=C/C(=O)N(CCN(C)C)c2ccccn2)cc(OC)c1OC | 45.5 µM | > 50% | –

Source: ChEMBL document CHEMBL5143703, “Discovery of novel chloropyramine-cinnamic acid hybrids as potential FAK inhibitors for intervention of metastatic triple-negative breast cancer” (Bioorg Med Chem, 2022)
